Test results: patent US20070122400A1, “Composition having liver function protecting effect” (priority 2003, published 2007)

Legend:
[1] = system: liver dysfunction model using carbon tetrachloride; experiment: liver dysfunction model using carbon tetrachloride, plasma GPT activity; assay type: in vivo, male SD rats; details: rats; for GPT activity in the plasma sample, relative to the control group: 100 mg/kg oral in soy oil about 17 h before 50% carbon tetrachloride 2.0 ml/kg i.p., plasma 24 hours after carbon tetrachloride, n=4; for GPT activity in the plasma, rank among the groups: 100 mg/kg oral, 24 hours after carbon tetrachloride, same tendency at 48 hours and 72 hours, control group highest
Description: The effects of coenzyme Q10 on protecting liver functions from disorders and preventing liver dysfunctions were examined by establishing a liver dysfunction model using carbon tetrachloride. A soy oil solution of oxidized coenzyme Q10 or reduced coenzyme Q10 with approximately 2% of oxidized coenzyme Q10 was orally administered to male SD rats (6 weeks old) at a dosage of 100 mg/kg. About 16 hours after the administration, blood was collected from the jugular vein using heparin as an anticoagulant. After one hour, 50% carbon tetrachloride (product of Nacalai Tesque, Inc.)/olive oil (product of Wako Pure Chemical Industries, Ltd.) was intraperitoneally administered at a dosage of 2.0 ml/kg. Blood was collected 24 hours, 48 hours, and 72 hours after the administration of carbon tetrachloride. The collected blood samples were centrifuged to obtain plasma samples. The GPT activity of each plasma sample was measured using a kit, Transaminase CII-Test Wako (product of Wako Pure Chemical Industries, Ltd.).

[2] = rats, daily dosage of 1,200 mg/kg continuously for 52 weeks; cited from earlier work
[3] = system: Liver dysfunction induced by carbon tetrachloride; details: rats, intraperitoneal administration; cited from earlier work

SMILES | GPT activity in the plasma sample, relative to the control group [1] | GPT activity in the plasma, rank among the groups [1] | toxic effects in chronic toxicity test [2] | liver dysfunction induced by carbon tetrachloride [3]
COc1c(O)c(C)c(C/C=C(\C)CC/C=C(\C)CC/C=C(\C)CC/C=C(\C)CC/C=C(\C)CC/C=C(\C)CC/C=C(\C)CC/C=C(\C)CC/C=C(\C)CCC=C(C)C)c(O)c1OC [reduced coenzyme Q10] | about 25 % of the control group | the lowest | – | –
COC1=C(OC)C(=O)C(C/C=C(\C)CC/C=C(\C)CC/C=C(\C)CC/C=C(\C)CC/C=C(\C)CC/C=C(\C)CC/C=C(\C)CC/C=C(\C)CC/C=C(\C)CCC=C(C)C)=C(C)C1=O [Coenzyme Q10] | – | – | no toxic effects | –
COC1=C(OC)C(=O)C(C/C=C(\C)CC/C=C(\C)CC/C=C(\C)CC/C=C(\C)CC/C=C(\C)CC/C=C(\C)CC/C=C(\C)CC/C=C(\C)CC/C=C(\C)CCC=C(C)C)=C(C)C1=O [oxidized coenzyme Q10] | about 60 % of the control group | the next highest | – | suppressed
